Data on six compounds can be found in patent US7772001B2, “Directed differentiation of embryonic stem cells into an endoderm cell” (Yissum Research Development Company Of the Hebrew …, priority 2000, dated 2010).

Assay type in all cases: cell-based
The subject of series [1] is human differentiated embryonic (DE) cells. Description: RT-PCR of cell specific genes in DE cells treated with growth factors. The conditions noted are these: for expression of uro-genital marker WT-1 / set of cell specific transcripts produced: DE cells, 10 days with factor; for blood formation / differentiation into chondrocytes / differentiation into ectodermal cells / differentiation into endodermal cells / differentiation into kidney cells / differentiation into mesodermal cells / differentiation into skin cells / differentiation of brain cells (neurons) / differentiation toward liver (hepatocytes) / differentiation toward pancreas (islet cells) / differentiation into Mullerian duct cells / differentiation of heart cells / differentiation of muscle: vs control without growth factor (FIG. 4); for overall induction or repression of cell specific expression (FIG. 3B): at least three experiments. As for the experimental part:
(§1) Cell Culture: Human embryonic stem cells were grown on a feeder layer of mouse embryonic fibroblasts (MEF) and then transferred to gelatin coated plates and cultured further to reduce the number of murine cells in the culture. Differentiation into embryoid bodies (EBs) was initiated by transfer to Petri dishes, where the embryoid bodies remained in suspension. After 5 days, the EBs become dissociated and cells are cultured as a monolayer forming differentiated embryonic (DE) cells. This protocol allows for initial differentiation of the human embryonic stem cells as aggregates and further differentiation as a monolayer wherein cells can be exposed to exogenous growth factors. The DE cells were cultured for 10 days in the presence of 8 different growth factors: NGF, bFGF, Activin-A, TGFβ1, HGF, EGF, BMP4 and retinoic acid (RA) (FIG. 1A).
To induce formation of EBs, ES cells were transferred using trypsin/EDTA (0.1%/l mM) to plastic Petri dishes to allow their aggregation and prevent adherence to the plate. Human EBs were grown in the same culture medium, except that it lacked leukemia inhibitory factor (LIF) and bFGF. The EBs were cultured for 5 days and then dissociated and plated on tissue culture plates coated with 50 μg/ml Fibronectin (Boehringer Mannheim). The cells were grown in the presence of the following human recombinant growth factors used singly or in groups: Basic Fibroblast Growth Factor (bFGF) (Swoboda et al, 1999)—10 ng/ml (Gibco BRL); Transforming Growth Factor Beta 1 (TGFβ1) (Swoboda et al, 1999)—2 ng/ml (R&D Systems); Activin-A (Slager et al, 1993)—20 ng/ml (R&D Systems); Bone Morphogenic Protein 4 (BMP-4) (Slager et al, 1993; Bain et al, 1996)—10 ng/ml (R&D Systems); Hepatocyte Growth Factor (HGF)/Scatter Factor (Doetsch et al, 1999)—20 ng/ml (R&D Systems); Epidermal Growth Factor (EGF) (Doetsch et al, 1999)—100 ng/ml (R&D Systems); βNerve Growth Factor (NGF) (Johansson et al, 1999)—100 ng/ml (R&D Systems); Retinoic acid (RA) (Deacon et al, 1998; Peschanski et al, 1995)—1 μM (Sigma). Under these conditions the differentiated embryonic (DE) cells were grown for another 10 days. All of the examined growth factors are absent from the KnockOut™ serum replacement in which the embryonic cells were cultured.
RT-PCR Analysis: Total RNA was extracted using Atlas™ Pure Total RNA Kit (Clontech). cDNA was synthesized from 1 μg total RNA, using Atlas™ RT-for-PCR Kit (Clontech). cDNA samples were subjected to PCR amplification with DNA primers selective for the human genes. For each gene, the DNA primers were derived from different exons to ensure that the PCR product represents the specific mRNA species and not genomic DNA. PCR was performed using the Clontech Advantaq+™ RT-PCR kit and using a two-step cycle at 68° C.
Primers were synthesized for the following genes: neurofilament heavy chain (NF-H), phosphoprotein enriched in astrocytes (PEA-15), Keratin, Dopamine β Hydroxylase (DβH), Follicular Stimulating Hormone (FSH), Enolase, Myosin light polypeptide2 (myosin), Cartilage Matrix Protein (CMP), Renin, Kallikrein, Wilms Tumor 1 (WTI), β-Globin (β-Glob), δ-Globin (δ-Glob), Cardiac Actin (cACT), Albumin, α1 anti-trypsin (α1 AT), Lipase, Amylase, PDX-1, Insulin, Glucagon, Surfactant, Parathyroid Hormone (PTH), α-feto protein (αFP), Retinoic Acid Receptor type alpha (RAR), Hepatocyte Growth Factor Receptor (c-Met), Nerve Growth Factor Receptor (NGFR), Fibroblast Growth Factor Receptor type I (FGFRI), Transforming Growth Factor Receptor type II (TGFRII), Epidermal Growth Factor Receptor type (EGFR), Activin Receptor type IIB (ACTRIIB), Bone Morphogenic Protein 4 Receptor type II (BMP4RII), Octamer Binding Protein 4 (Oct 4), Glyceraldehyde 3-phosphate dehydrogenase (G3PD), β-Actin. Also incorporated by reference, see http://www.ls.huji.ac.il/˜nissimb/factors_es/primers.html-ente.
The differentiation induced by growth factors was further examined by determining the expression of a panel of 24 cell specific genes using RT-PCR. […]

For series [2] the test system is unchanged. Description: Morphology of DE cells cultured with growth factors. As to conditions: several days on plastic, continuous exposure to growth factor (FIG. 1B). As for the experimental part:
as §1
To induce formation of EBs, ES cells were transferred using trypsin/EDTA (0.1%/l mM) to plastic Petri dishes to allow their aggregation and prevent adherence to the plate. Human EBs were grown in the same culture medium, except that it lacked leukemia inhibitory factor (LIF) and bFGF. The EBs were cultured for 5 days and then dissociated and plated on tissue culture plates coated with 50 μg/ml Fibronectin (Boehringer Mannheim). […]

Series [3] relates to human EBs (from human ES cells). The series is described as follows: In situ hybridization to NF-L RNA in cells derived from dissociated EBs. As to conditions: for proportion of neuronal cells in the cultures (NF-L RNA): controls 21%. As for the experimental part:
(§2) In Situ Hybridization and Immunohistochemistry: EBs or their plated derivatives were fixed in 4% paraformaldehyde. In in-situ experiments, hybridization to a 50-mer 2′-O-methyl 5′-biotinylated cDNA of NF-L (SEQ ID NO:1) (CCTGCGTGCGGATGGAC […]) followed. The probes were then detected with streptavidin-conjugated alkaline phosphatase using a fluorogenic substrate (Grifman et al, 1998). For immunohistochemistry, EBs were either embedded in paraffin and sectioned at 10 μM, or stained directly on the plates. Mouse monoclonal anti-NF-II was used as a primary antibody, and was detected with Cy3-conjugated goat anti-mouse igG.
(§3) Cell Culture. Human ES cells were grown and EBs were generated as described in Example 1. Four days following initiation of aggregation growth factors were administered: retinoic acid (Sigma): 10-^7 M (Bain et al, 1995) or 10^−6 (Bain et al, 1996); TGFβ1 (Sigma): 2 ng/ml (Slager et al, 1993); βNGF (New Biotechnology, Israel): 100 ng/ml (Wobus et al, 1988). After 21 days, EBs were plated on 5 μm/cm^2 collagen treated plates, either as whole EB's, or as single cells dissociated with trypsin/EDTA. The cultures were maintained for an additional week or 2 days, respectively.
In situ hybridization and immunohistochemistry was carried out according to Example 1. RT-PCR analysis. cDNA was synthesized from total RNA and PCR performed according to Example I. Primers for GAPDH, serotonin receptors 2A and 5A (5HT2A7 5HT5A, respectively) and dopamine receptor D1 (DRD1) were purchased from Clontech. The primers for dopa decarboxylase (DDC) were: […] (SEQ ID NO:2) and […] (SEQ ID NO:3).
Differentiation was initially assayed by in-situ hybridization to neurofilament light chain (NF-L) RNA, which is expressed by both immature and fully differentiated neurons (Carden et al, 1987).

Series [4] deals with human EBs. The series is described as follows: NF-H immunostaining of plated EBs, neuronal network complexity. As to conditions: RA treatment and plating on collagen; untreated EBs 54%. As for the experimental part: as §2, §3
In situ hybridization and immunohistochemistry was carried out according to Example 1. […]

Regarding “HGF: human recombinant Hepatocyte Growth Factor/Scatter Factor, 20 ng/ml”, in series [1], the “expression of uro-genital marker WT-1” value is recorded as “expressed”, the blood formation result is recorded as “significant inhibition”, the differentiation into chondrocytes result is on record as “significant inhibition” and the “differentiation into ectodermal cells” value is recorded as “allows”. Further, in series [1], the “differentiation into endodermal cells” value is listed as “allows”, the “differentiation into kidney cells” value is on record as “completely inhibited”, the “differentiation into mesodermal cells” value is “allows” and the “differentiation into skin cells” value is given as “induced at their normal level”. In series [1], the “differentiation of brain cells (neurons)” value is listed as “significant inhibition”, the “differentiation toward liver (hepatocytes)” value was “significant inhibition” and the “differentiation toward pancreas (islet cells)” value is given as “significant inhibition”. For the same compound, the “cell morphology found in treated culture” value in series [2] was “large populations of small cells with pronounced nuclei”.

Regarding `CC1=C(/C=C/C(C)=C/C=C/C(C)=C/C(=O)O)C(C)(C)CCC1` [RA, retinoic acid, reference compound], the “proportion of neuronal cells in the cultures (NF-L RNA)” value in series [3] (high concentration of RA (10^−6 M)) came out at 52%. Also, the “number of EBs containing NF-H positive neurons” value in series [4] is recorded as 76%.

For “TGFβ1: human recombinant Transforming Growth Factor Beta 1, 2 ng/ml”, the “effect on neuronal differentiation (NF-L RNA)” value in series [3] (TGFβ1 2 ng/ml) is recorded as “no effect”. Also, in series [1], the “set of cell specific transcripts produced” value is “relatively reduced set of specific transcripts”, the “overall induction or repression of cell specific expression (FIG. 3B)” value is reported as “mostly repress or fail to direct differentiation of as many cell types”, the blood formation entry is on record as “inhibit” and the “differentiation into Mullerian duct cells” value is recorded as “inhibit”. Also, in series [1], the differentiation into chondrocytes entry is given as “inhibit”, the “differentiation into ectodermal cells” value is recorded as “inhibit”, the “differentiation into endodermal cells” value was “inhibit” and the “differentiation into kidney cells” value was “inhibit”. For the same compound, the “differentiation into mesodermal cells” value in series [1] is given as “allow differentiation into selected mesodermal cells”.

Regarding “bFGF: human recombinant Basic Fibroblast Growth Factor, 10 ng/ml”, in series [1], the “differentiation into ectodermal cells” value is recorded as “allow or induce”, the “differentiation into kidney cells” value was “inhibits”, the “differentiation into mesodermal cells” value was “allow or induce” and the “differentiation into skin cells” value is given as “permits formation of normal levels”. In series [1], the “differentiation of brain cells (neurons)” value is given as “permits formation of normal levels”, the “differentiation of heart cells” value is listed as “stimulates” and the differentiation of muscle entry was “permits formation of normal levels”. In addition, in series [2], the “cell morphology found in treated culture” value is reported as “fibroblast like cells”.

Consider “EGF: human recombinant Epidermal Growth Factor, 100 ng/ml (NSDSECPLSHDGYCLHDGVCMYIEALDKYACNCVVGYIGERCQYRDLKWWELR; UniProt P01133 971-1023, looked up)”, for which, in series [1], the blood formation result is recorded as “inhibits”, the “differentiation into ectodermal cells” value was “allow or induce”, the “differentiation into kidney cells” value was “inhibits” and the “differentiation into mesodermal cells” value is on record as “allow or induce”. In series [1], the “differentiation into skin cells” value is “stimulate”, the “differentiation of brain cells (neurons)” value is “inhibits”, the “differentiation of heart cells” value was “stimulate” and the differentiation of muscle entry is listed as “permits normal levels”.

Turning to “NGF: human recombinant β nerve growth factor, 100 ng/ml”, in series [3] (summary statement), the “number of neuronal cells that develop from human embryonic cells” value is listed as “enhance”. Besides, in series [3] (βNGF 100 ng/ml), the “proportion of neuronal cells in the cultures (NF-L RNA)” value worked out at 39%. In addition, in series [1], the “expression of adrenal markers” value is recorded as “not”, the “expression of endodermal markers” value is “induce”, the “expression of uro-genital marker WT-1” value is “expressed” and the “set of cell specific transcripts produced” value is given as “induce expression of a variety of transcripts indicative of cells from all three germ layers”. Besides, in series [1], the “overall induction or repression of cell specific expression (FIG. 3B)” value is recorded as “induces the greatest variety of cell specific gene expression”, the blood formation result is reported as “stimulate”, the “differentiation into Mullerian duct cells” value is “direct the differentiation” and the differentiation into chondrocytes result is recorded as “down-regulate”. In series [1], the “differentiation into ectodermal cells” value is recorded as “allows”, the “differentiation into endodermal cells” value is reported as “allows”, the “differentiation into kidney cells” value was “direct the differentiation” and the “differentiation into mesodermal cells” value is reported as “allows”. Besides, in series [1], the “differentiation into skin cells” value is listed as “completely inhibited”, the “differentiation of brain cells (neurons)” value is recorded as “direct the differentiation”, the “differentiation of heart cells” value is recorded as “stimulate” and the differentiation of muscle entry is listed as “down-regulate”. Besides, in series [1], the “differentiation toward liver (hepatocytes)” value is reported as “direct the differentiation” and the “differentiation toward pancreas (islet cells)” value is on record as “direct the differentiation”.
